Here are results for 3 compounds from patent US12644886B2, “Biosensor microarray compositions and methods” (Arizona Board of Regents on Behalf of Arizona State …, priority 2013, dated 2026).

The target of this experiment is Src kinase (Homo sapiens, UniProt P12931). Description: FET biosensor detection of Src kinase auto-phosphorylation (phosphokinase activity). The experiment is classed as biochemical. An excerpt:
FIG. 6 FET Biosensor detection of phosphokinase activity.
In some embodiments the biosensor microarray is used to quantify kinetic rates of interaction between one or more analytes in a test sample and the corresponding detector polypeptides. In other embodiments, the biosensor microarray is used to assess inhibition of a protein activity or a protein-protein interaction. For example, where the detector polypeptide is a protein kinase substrate or a kinase with autophosphorylation activity, phosphokinase activity can be detected in the presence or absence of a known or putative inhibitor of the specific phosphokinase activity (see, e.g. FIGS. 6-7). […] Further, where increased kinase phosphorylation is associated with a particular disease state, the kinase activity of particular biological samples can be assessed by contacting a biosensor microarray described herein with the relevant biological sample and detecting phosphorylation of one or more detector polypeptides. Protein kinases are important targets in a number of health condition, e.g., cancer, pulmonary hypertension, diabetes, Alzheimer's, Parkinson's, CNS diseases, macular degeneration, Idiopathic pulmonary fibrosis, systemic sclerosis, rheumatoid disorders, among other diseases, allowing discovery of kinase inhibitor drugs and applying kinase functional screening as disease diagnostics

Src kinase, sequence (P12931 whole entry): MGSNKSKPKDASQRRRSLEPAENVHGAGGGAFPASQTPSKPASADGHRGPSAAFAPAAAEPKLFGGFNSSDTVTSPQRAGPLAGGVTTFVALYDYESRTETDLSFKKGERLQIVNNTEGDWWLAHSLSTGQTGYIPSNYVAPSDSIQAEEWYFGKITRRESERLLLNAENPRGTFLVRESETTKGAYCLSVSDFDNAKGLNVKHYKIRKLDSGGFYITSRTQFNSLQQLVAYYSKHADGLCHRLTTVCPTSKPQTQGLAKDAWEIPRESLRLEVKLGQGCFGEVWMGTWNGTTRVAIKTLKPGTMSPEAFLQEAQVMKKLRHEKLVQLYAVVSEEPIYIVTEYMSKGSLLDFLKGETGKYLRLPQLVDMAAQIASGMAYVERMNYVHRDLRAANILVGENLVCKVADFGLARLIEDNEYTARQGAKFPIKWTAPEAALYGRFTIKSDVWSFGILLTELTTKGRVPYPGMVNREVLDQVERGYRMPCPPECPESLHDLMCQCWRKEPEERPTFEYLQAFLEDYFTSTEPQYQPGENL

In the case of `CN[C@@H]1C[C@H]2O[C@@](C)([C@@H]1OC)n1c3ccccc3c3c4c(c5c6ccccc6n2c5c31)C(=O)NC4` [Staurosporine], the “Src kinase inhibition (real time detection of Src kinase autophosphorylation)” value (2 μM staurosporine, FET-based biosensor microarray) is reported as “inhibition”.

With `Nc1ncnc2c1ncn2[C@@H]1O[C@H](COP(=O)(O)OP(=O)(O)OP(=O)(O)O)[C@@H](O)[C@H]1O` [ATP], the “threshold voltage response (FDEC FET response to Src kinase auto-phosphorylation by detecting H+)” value (upon addition of 10 mM ATP) worked out at 200 mV.

As for `Nc1ncnc2c1ncn2[C@@H]1O[C@H](COP(=O)(O)OP(=O)(O)O)[C@@H](O)[C@H]1O` [ADP], the “FDEC FET sensor response to Src kinase auto-phosphorylation upon addition” value (addition of ADP instead of ATP) is “no response”.
